In ChEMBL document CHEMBL4145470, “Efficient synthesis and first regioselective C-6 direct arylation of imidazo[2,1-c][1,2,4]triazine scaffold and their evaluation in H2O2-induced oxidative stress” (Eur J Med Chem, 2018):
The source made the active and inactive calls. The calls are words filed in the database; no cut-off is given here.

Experiments:
SH-SY5Y [1] = assay: Cytoprotective activity against H2O2-induced apoptosis in human SH-SY5Y cells assessed as relative cleaved PARP levels at 0.1 uM (reference value: 0.725 +/- 0.06); type: functional
SH-SY5Y [2] = assay: Cytoprotective activity against H2O2-induced oxidative stress in human SH-SY5Y cells assessed as cell viability at 10 uM preincubated for 24 hrs followed by H2O2 addition and measured after 1 hr by MTT assay (reference value: 37.88 +/- 8.52%); type: functional; conditions: read-out: Activity
SH-SY5Y [3] = assay: Cytoprotective activity against H2O2-induced oxidative stress in human SH-SY5Y cells assessed as cell viability at 0.1 uM preincubated for 24 hrs followed by H2O2 addition and measured after 1 hr by MTT assay (reference value: 37.88 +/- 8.52%); type: functional; conditions: read-out: Activity
SH-SY5Y [4] = assay: Cytoprotective activity against H2O2-induced oxidative stress in human SH-SY5Y cells assessed as cell viability at 1 uM preincubated for 24 hrs followed by H2O2 addition and measured after 1 hr by MTT assay (reference value: 37.88 +/- 8.52%); type: functional; conditions: read-out: Activity
SH-SY5Y [5] = assay: Cytoprotective activity against H2O2-induced apoptosis in human SH-SY5Y cells assessed as relative cleaved caspase-3 levels at 0.1 uM (reference value: 0.875 +/- 0.035); type: functional
SH-SY5Y [6] = assay: Cytoprotective activity against H2O2-induced apoptosis in human SH-SY5Y cells assessed as decrease in Bax levels at 0.1 uM preincubated for 24 hrs followed by H2O2 addition measured after 1 hr by Western blot analysis; type: functional, cell-based
SH-SY5Y [7] = assay: Cytotoxicity against human SH-SY5Y cells at 1 to 10 uM after 24 hrs by MTT assay; type: cell-based
[8] = molecular target: Eukaryotic translation initiation factor 2 subunit 1 (Homo sapiens) (UniProt P05198); assay: Inhibition of H2O2-induced eIF2alpha phosphorylation in human SH-SY5Y cells at 0.1 uM; type: cell-based
Chain of Eukaryotic translation initiation factor 2 subunit 1 (Homo sapiens) (P05198 whole entry): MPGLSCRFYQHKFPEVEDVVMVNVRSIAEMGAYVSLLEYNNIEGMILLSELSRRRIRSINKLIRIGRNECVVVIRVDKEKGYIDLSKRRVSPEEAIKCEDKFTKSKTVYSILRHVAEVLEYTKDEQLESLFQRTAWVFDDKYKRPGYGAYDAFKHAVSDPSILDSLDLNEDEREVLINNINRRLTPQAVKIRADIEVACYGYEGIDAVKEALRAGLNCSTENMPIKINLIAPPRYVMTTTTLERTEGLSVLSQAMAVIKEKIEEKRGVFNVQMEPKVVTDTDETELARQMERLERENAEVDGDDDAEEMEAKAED

SH-SY5Y [9] = assay: Cytoprotective activity against H2O2-induced oxidative stress in human SH-SY5Y cells assessed as increase in cell viability preincubated for 24 hrs followed by H2O2 addition and measured after 1 hr by MTT assay; type: functional, cell-based
[10] = molecular target: T1, Mitogen-activated protein kinase; ERK1/ERK2 (Homo sapiens) (UniProt P27361+P28482); assay: Inhibition of H2O2-induced p44/42 MAPK phosphorylation in human SH-SY5Y cells at 0.1 uM; type: cell-based
T1 sequence (P27361 whole entry, looked up): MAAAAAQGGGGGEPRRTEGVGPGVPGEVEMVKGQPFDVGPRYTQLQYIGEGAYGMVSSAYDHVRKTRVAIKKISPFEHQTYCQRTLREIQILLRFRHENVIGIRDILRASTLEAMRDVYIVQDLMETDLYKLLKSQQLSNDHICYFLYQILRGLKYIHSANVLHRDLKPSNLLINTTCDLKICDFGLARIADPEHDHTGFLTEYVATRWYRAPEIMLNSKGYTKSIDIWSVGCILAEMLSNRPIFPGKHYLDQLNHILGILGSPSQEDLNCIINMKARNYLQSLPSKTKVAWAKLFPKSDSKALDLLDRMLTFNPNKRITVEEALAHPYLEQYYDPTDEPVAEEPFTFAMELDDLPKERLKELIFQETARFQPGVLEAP
T1 sequence (P28482 whole entry, looked up): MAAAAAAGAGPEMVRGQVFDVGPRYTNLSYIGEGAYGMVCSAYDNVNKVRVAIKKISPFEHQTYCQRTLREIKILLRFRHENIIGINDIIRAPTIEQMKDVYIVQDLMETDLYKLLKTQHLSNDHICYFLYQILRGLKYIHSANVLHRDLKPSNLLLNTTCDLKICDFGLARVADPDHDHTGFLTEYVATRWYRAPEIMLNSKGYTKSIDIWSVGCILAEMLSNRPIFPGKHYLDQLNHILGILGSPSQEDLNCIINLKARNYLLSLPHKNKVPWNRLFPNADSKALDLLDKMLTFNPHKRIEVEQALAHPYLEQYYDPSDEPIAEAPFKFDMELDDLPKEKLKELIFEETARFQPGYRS

[11] = molecular target: T2, MAP kinase p38 (Homo sapiens) (UniProt O15264+Q15759+Q16539+P53778); assay: Inhibition of H2O2-induced p38 MAPK phosphorylation in human SH-SY5Y cells at 0.1 uM; type: cell-based
SH-SY5Y [12] = assay: Cytoprotective activity against H2O2-induced apoptosis in human SH-SY5Y cells assessed as increase in Bcl-2/Bax ratio at 0.1 uM preincubated for 24 hrs followed by H2O2 addition measured after 1 hr by Western blot analysis; type: functional, cell-based
SH-SY5Y [13] = assay: Cytoprotective activity against H2O2-induced apoptosis in human SH-SY5Y cells assessed as relative Bcl-2 levels at 0.1 uM preincubated for 24 hrs followed by H2O2 addition measured after 1 hr by Western blot analysis (reference value: 2.084 +/- 0.078); type: functional
[14] = molecular target: RAC-alpha serine/threonine-protein kinase (Homo sapiens) (UniProt P31749); assay: Induction of Akt phosphorylation in H2O2-treated human SH-SY5Y cells at 0.1 uM by ELISA; type: cell-based
Chain of RAC-alpha serine/threonine-protein kinase (Homo sapiens) (P31749 whole entry): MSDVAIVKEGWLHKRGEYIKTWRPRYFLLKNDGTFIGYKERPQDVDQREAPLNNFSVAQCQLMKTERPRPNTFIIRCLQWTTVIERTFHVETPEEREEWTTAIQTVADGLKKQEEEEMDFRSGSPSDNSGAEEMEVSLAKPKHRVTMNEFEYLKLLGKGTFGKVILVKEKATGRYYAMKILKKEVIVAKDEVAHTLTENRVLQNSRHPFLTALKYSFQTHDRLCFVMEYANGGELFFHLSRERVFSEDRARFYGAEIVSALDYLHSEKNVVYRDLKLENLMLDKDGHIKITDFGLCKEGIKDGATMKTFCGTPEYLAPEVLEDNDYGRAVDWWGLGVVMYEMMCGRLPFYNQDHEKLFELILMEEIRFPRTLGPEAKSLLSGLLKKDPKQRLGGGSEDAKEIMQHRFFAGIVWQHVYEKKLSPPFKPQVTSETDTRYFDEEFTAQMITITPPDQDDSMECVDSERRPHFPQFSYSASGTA

[15] = molecular target: RAC-alpha serine/threonine-protein kinase (Homo sapiens) (UniProt P31749); assay: Induction of Akt phosphorylation in H2O2-treated human SH-SY5Y cells assessed as increase in pBad levels at 0.1 uM by ELISA; type: cell-based
SH-SY5Y [16] = assay: Cytoprotective activity against H2O2-induced apoptosis in human SH-SY5Y cells assessed as decrease in Bax levels at 1 uM preincubated for 24 hrs followed by H2O2 addition measured after 1 hr by Western blot analysis; type: functional, cell-based
[17] = molecular target: Eukaryotic translation initiation factor 2 subunit 1 (Homo sapiens) (UniProt P05198); assay: Inhibition of H2O2-induced eIF2alpha phosphorylation in human SH-SY5Y cells at 1 uM; type: cell-based
SH-SY5Y [18] = assay: Cytoprotective activity against H2O2-induced apoptosis in human SH-SY5Y cells assessed as relative Bcl-2 levels at 1 uM preincubated for 24 hrs followed by H2O2 addition measured after 1 hr by Western blot analysis (reference value: 2.084 +/- 0.078); type: functional
SH-SY5Y [19] = assay: Cytoprotective activity against H2O2-induced apoptosis in human SH-SY5Y cells assessed as increase in Bcl-2/Bax ratio at 1 uM preincubated for 24 hrs followed by H2O2 addition measured after 1 hr by Western blot analysis; type: functional, cell-based
[20] = molecular target: T1, Mitogen-activated protein kinase; ERK1/ERK2 (Homo sapiens); assay: Inhibition of H2O2-induced p44/42 MAPK phosphorylation in human SH-SY5Y cells at 1 uM; type: cell-based
SH-SY5Y [21] = assay: Cytoprotective activity against H2O2-induced apoptosis in human SH-SY5Y cells assessed as increase in Bcl-2 levels at 0.1 uM preincubated for 24 hrs followed by H2O2 addition measured after 1 hr by Western blot analysis; type: functional, cell-based
SH-SY5Y [22] = assay: Cytoprotective activity against H2O2-induced apoptosis in human SH-SY5Y cells assessed as relative cleaved caspase-7 levels at 0.1 uM (reference value: 1.025 +/- 0.120); type: functional
SH-SY5Y [23] = assay: Cytoprotective activity against H2O2-induced apoptosis in human SH-SY5Y cells assessed as increase in Bcl-2/Bax ratio at 10 uM preincubated for 24 hrs followed by H2O2 addition measured after 1 hr by Western blot analysis; type: functional, cell-based
SH-SY5Y [24] = assay: Cytoprotective activity against H2O2-induced apoptosis in human SH-SY5Y cells assessed as relative Bcl-2 levels at 10 uM preincubated for 24 hrs followed by H2O2 addition measured after 1 hr by Western blot analysis (reference value: 2.084 +/- 0.078); type: functional
[25] = molecular target: T1, Mitogen-activated protein kinase; ERK1/ERK2 (Homo sapiens); assay: Inhibition of H2O2-induced p44/42 MAPK phosphorylation in human SH-SY5Y cells at 10 uM; type: cell-based
[26] = Cytoprotective activity against H2O2-induced apoptosis in human SH-SY5Y cells assessed as relative cleaved caspase-7 levels at 1 uM (reference value: 1.025 +/- 0.120)
SH-SY5Y [27] = assay: Cytoprotective activity against H2O2-induced apoptosis in human SH-SY5Y cells assessed as relative cleaved PARP levels at 1 uM (reference value: 0.725 +/- 0.06); type: functional
[28] = molecular target: RAC-alpha serine/threonine-protein kinase (Homo sapiens) (UniProt P31749); assay: Induction of Akt phosphorylation in H2O2-treated human SH-SY5Y cells at 1 uM by ELISA; type: cell-based
[29] = molecular target: RAC-alpha serine/threonine-protein kinase (Homo sapiens) (UniProt P31749); assay: Induction of Akt phosphorylation in H2O2-treated human SH-SY5Y cells assessed as increase in pBad levels at 1 uM by ELISA; type: cell-based
[30] = molecular target: T2, MAP kinase p38 (Homo sapiens); assay: Inhibition of H2O2-induced p38 MAPK phosphorylation in human SH-SY5Y cells at 1 uM; type: cell-based
SH-SY5Y [31] = assay: Cytoprotective activity against H2O2-induced apoptosis in human SH-SY5Y cells assessed as relative cleaved caspase-3 levels at 1 uM (reference value: 0.875 +/- 0.035); type: functional

Row | inhibition [8] | Activity [14] | Activity [15] | Structure (SMILES) | viability at 10 µM (SH-SY5Y [2]) [%] | viability at 0.1 µM (SH-SY5Y [3]) [%] | viability at 1 µM (SH-SY5Y [4]) [%] | Activity (SH-SY5Y [6]) | Activity (SH-SY5Y [7]) | Activity (SH-SY5Y [9]) | also measured
1 | inactive | – | – | COc1ccc(-c2cn3ccnnc3n2)cc1 | 60.9 | 73.9 | 71.3 | Active | Non-Toxic | Dose-dependent effect | fold change (FC) (SH-SY5Y [1]): 0.62; fold change (FC) (SH-SY5Y [5]): 0.705; inhibition [10]: Active
2 | inactive | – | – | FC(F)(F)c1ccc(-c2cn3ccnnc3n2)cc1 | 60.8 | 85.1 | 59.1 | Active | Non-Toxic | Dose-dependent effect | inhibition [11]: Active; Activity (SH-SY5Y [12]): Active; fold change (FC) (SH-SY5Y [13]): 2.923
3 | – | Active | inactive | COc1ccc(-c2nc3nnccn3c2-c2cccs2)cc1 | 68.4 | 44.6 | 70.7 | – | Non-Toxic | Dose-dependent effect | Activity (SH-SY5Y [16]): inactive; inhibition [17]: inactive; fold change (FC) (SH-SY5Y [18]): 2.955; Activity (SH-SY5Y [19]): Active
4 | inactive | Active | Active | c1ccc(-c2cn3ccnnc3n2)cc1 | 62.6 | 77.3 | 72.8 | inactive | Non-Toxic | Dose-dependent effect | –
5 | inactive | Active | Active | COc1ccccc1-c1cn2ccnnc2n1 | 51.1 | 62.7 | 60.5 | Active | Non-Toxic | Dose-dependent effect | Activity (SH-SY5Y [21]): Active
6 | inactive | – | – | COc1cccc(-c2cn3ccnnc3n2)c1 | 65 | 73.8 | 62.8 | Active | Non-Toxic | Dose-dependent effect | fold change (FC) (SH-SY5Y [1]): 0.48; inhibition [11]: Active; fold change (FC) (SH-SY5Y [5]): 0.595; inhibition [10]: Active; fold change (FC) (SH-SY5Y [22]): 0.815
7 | inactive | Active | Active | COc1ccc(-c2nc3nnccn3c2-c2ccccc2)cc1 | 79.7 | 72.9 | 50.6 | Active | Non-Toxic | Dose-dependent effect | Activity (SH-SY5Y [12]): Active; Activity (SH-SY5Y [21]): Active

Second part, the compound before the results:

Row | Structure (SMILES) | inhibition [8] | Activity [14] | Activity [15] | viability at 10 µM (SH-SY5Y [2]) [%] | viability at 0.1 µM (SH-SY5Y [3]) [%] | viability at 1 µM (SH-SY5Y [4]) [%] | Activity (SH-SY5Y [6]) | Activity (SH-SY5Y [7]) | Activity (SH-SY5Y [9]) | also measured
8 | COc1ccc(-c2nc3nnccn3c2-c2ccc([N+](=O)[O-])cc2)cc1 | inactive | inactive | inactive | 74.9 | 81.2 | 56 | Active | Non-Toxic | Dose-dependent effect | –
9 | COc1ccc(-c2nc3nnccn3c2-c2cccc(F)c2)cc1 | – | – | – | 66.4 | 54.6 | 51.3 | – | Non-Toxic | Dose-dependent effect | –
10 | COc1ccc(-c2nc3nnccn3c2-c2ccccc2C)cc1 | – | – | – | 72.4 | 60.7 | 73.8 | – | Non-Toxic | Dose-dependent effect | Activity (SH-SY5Y [16]): Active; inhibition [17]: inactive; inhibition [20]: Active
11 | O=[N+]([O-])c1cccc(-c2cn3ccnnc3n2)c1 | – | – | – | 65.7 | 61.5 | 58.9 | – | Non-Toxic | Dose-dependent effect | –
12 | COc1ccc(-c2nc3nnccn3c2-c2cccc(C#N)c2)cc1 | inactive | – | – | 54.3 | 66.6 | 55.5 | – | Non-Toxic | Dose-dependent effect | –
13 | COc1ccc(-c2nc3nnccn3c2-c2ccncc2)cc1 | – | – | – | 61.5 | 64.1 | 55.7 | – | Non-Toxic | Dose-dependent effect | –
14 | COc1ccc(-c2nc3nnccn3c2-c2ccc(OC(F)(F)F)cc2)cc1 | inactive | Active | Active | 66.8 | 78.6 | 54.8 | Active | Non-Toxic | Dose-dependent effect | Activity (SH-SY5Y [12]): Active; Activity (SH-SY5Y [21]): Active
15 | COc1ccc(-c2nc3nnccn3c2-c2ccc(OC)cc2)cc1 | – | – | – | 75.2 | 49.6 | 65.5 | – | Non-Toxic | Dose-dependent effect | inhibition [17]: inactive; Activity (SH-SY5Y [23]): Active; fold change (FC) (SH-SY5Y [24]): 3.015; inhibition [25]: Active
16 | COc1ccc(-c2nc3nnccn3c2-c2ccc(C)c([N+](=O)[O-])c2)cc1 | – | Active | Active | 83.3 | 49.5 | 79.6 | – | Non-Toxic | Dose-dependent effect | Activity (SH-SY5Y [16]): Active; inhibition [17]: inactive; fold change (FC) [26]: 0.834; inhibition [20]: Active; fold change (FC) (SH-SY5Y [18]): 2.398; Activity (SH-SY5Y [19]): Active
17 | N#Cc1ccc(-c2cn3ccnnc3n2)cc1 | – | – | – | 54.2 | 67.1 | 65.4 | – | Non-Toxic | Dose-dependent effect | –
18 | COc1ccc(-c2nc3nnccn3c2-c2ccc(C)cc2)cc1 | – | – | – | 63.3 | 55.3 | 67.4 | – | Non-Toxic | Dose-dependent effect | fold change (FC) (SH-SY5Y [27]): 0.581; inhibition [17]: inactive; fold change (FC) [26]: 0.856; inhibition [20]: Active; Activity [28]: Active; Activity [29]: Active; inhibition [30]: Active; fold change (FC) (SH-SY5Y [31]): 0.628
